Source: patent EP1203770A1 (priority 1992, dated 1994)

Molecular target: T1, HIV-1 protease (Human immunodeficiency virus type 1 group M subtype B, UniProt P04585)
T1 construct: The protease (or proteinase), consisting of only 99 amino acids, is among the smallest enzymes known
Assay: In vitro HIV protease inhibitory assay (HIV Protease FITC Assay)
Type: biochemical
Conditions: for inhibition at 0.123 µM: HIV-1 Dose 0.123 uM; for inhibition at 0.37 µM: HIV-1 Dose 0.370 uM; for inhibition at 1.1 µM: HIV-1 Dose 1.100 uM; for inhibition at 3.3 µM: HIV-1 Dose 3.300 uM; for inhibition at 10 µM: HIV-1 Dose 10.000 uM; for inhibition at 30 µM: HIV-1 Dose 30.000 uM; for Ki: read-out: HIV-1 FITC Ki
In short: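 Percent inhibition was read as fluorescence after avidin-bead capture and filtration separated FITC cleavage product from biotinylated substrate. Enzyme and substrate reacted 1 h, RT, dark, at pH 5.5 (0.1 M sodium acetate, 1.0 M NaCl, 0.05% NP-40).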

[1] = read-out: HIV-1 Protease % Inhib

SMILES | inhibition at 0.123 µM [1] | inhibition at 0.37 µM [1] | inhibition at 1.1 µM [1] | inhibition at 3.3 µM [1] | inhibition at 10 µM [1] | inhibition at 30 µM [1] | Ki | inhibition at 100 µM (HIV-1 Dose 100.000 uM, read-out: HIV-1 Protease % Inhib)
CCC(C1=C(O)CC2(CCCC2)OC1=O)c1ccccc1 (stereo not shown) [Example 130, 4-Hydroxy-3-(1-phenylpropyl)-1-oxa-spiro[5.4]-dec-3-en-2-one] | < 10% | < 10% | < 10% | < 10% | < 10% | 13.1% |  | 
CCC(CCN1CCOCC1)c1cc(O)c(C(c2ccccc2)C2CC2)c(=O)o1 (stereo not shown) [Example 131, 3-(Cyclopropylphenylmethyl)-6-[1-ethyl-3-(4-morpholinyl)propyl]-4-hydroxy-2H-pyran-2-one] | < 10% | < 10% | < 10% | < 10% | 13.2% | 45.9% |  | 
CCC(CC(=O)OCc1ccccc1)c1cc(O)c(C(c2ccccc2)C2CC2)c(=O)o1 (stereo not drawn) [Example 132, 3-(Cyclopropylphenylmethyl)-β-ethyl-4-hydroxy-2-oxo-, phenylmethyl ester 2H-pyran-6-propanoic acid] | < 10% | < 10% | 29.1% | 70.2% | 87.6% | 110% |  | 
CC(C)C(Cc1ccccc1)c1cc(O)c(C(c2ccccc2)C2CC2)c(=O)o1 (stereo not shown) [Example 133, 3-(Cyclopropylphenylmethyl)4-hydroxy-6-[2-methyl-1-(phenylmethyl)propyl]-2H-pyran-2-one] | 20.6% | 49.6% | 74.3% | 95.9% | 110% | 102% | 40 nM | 
CC(C)C(CC1CCCOC1)c1cc(O)c(C(c2ccccc2)C2CC2)c(=O)o1 (stereo not shown) [Example 134, 3-(Cyclopropylphenylmethyl)-4-hydroxy-6-[2-methyl-1-[(tetrahydro-2H-pyran-3-yl)methyl]propyl]-2H-pyran-2-one] | 21.1% | 57.5% | 83.1% | 99.7% | 111% | 106% | 24 nM | 
CCC(CCC(F)(F)F)c1cc(O)c(C(c2ccccc2)C2CC2)c(=O)o1 (stereo not shown) [Example 136, 3-(Cyclopropylphenylmethyl)-6-(1-ethyl-4,4,4-trifluorobutyl)-4-hydroxy-2H-pyran-2-one] | < 10% | 24.5% | 62.4% | 91.3% | 99.1% | 99.7% | 52 nM | 
CCC(CC1CCCN(S(=O)(=O)c2ccc(C)cc2)C1)c1cc(O)c(C(c2ccccc2)C2CC2)c(=O)o1 (stereo not shown) [Example 137, 3-[2-[3-(Cyclopropylphenylmethyl)-4-hydroxy-2-oxo-2H-pyran-6-yl]butyl]-1-[(4-methylphenyl)sulfonyl]-piperidine] | < 10% | < 10% | 23% | 57.2% | 80.2% | 79.7% |  | 
CCC(CC1CCCN1S(=O)(=O)c1ccc(C)cc1)c1cc(O)c(C(c2ccccc2)C2CC2)c(=O)o1 (stereo not shown) [Example 138, 2-[2-[3-(Cyclopropylphenylmethyl)-4-hydroxy-2-oxo-2H-pyran-6-yl]butyl]-1-[(4-methylphenyl)sulfonyl]-pyrrolidine] | < 10% | < 10% | 24.8% | 63.9% | 83.3% | 81.1% |  | 
O=c1oc(CCC(F)(F)F)cc(O)c1C(c1ccccc1)C1CC1 (stereo not shown) [Example 139, 3-(Cyclopropylphenylmethyl)-4-hydroxy-6-(3,3,3-trifluoropropyl)-2H-pyran-2-one] | < 10% | < 10% | < 10% | 27.9% | 58% | 67.1% |  | 
CCC(CC1CCCCN1S(=O)(=O)c1ccc(C)cc1)c1cc(O)c(C(c2ccccc2)C2CC2)c(=O)o1 (stereo not shown) [Example 140, 2-[2-(3-(Cyclopropylphenylmethyl)-4-hydroxy-2-oxo-2H-pyran-6-yl]butyl]-1-[(4-methylphenyl)sulfonyl]-piperidine] | < 10% | 10.5% | 38.6% | 70.2% | 81.6% | 77.1% |  | 
CCC(CC1CCN(S(=O)(=O)c2ccc(C)cc2)CC1)c1cc(O)c(C(c2ccccc2)C2CC2)c(=O)o1 (stereo not shown) [Example 141, 4-[2-[3-(Cyclopropylphenylmethyl)-4-hydroxy-2-oxo-2H-pyran-6-yl]butyl]-1-[(4-methylphenyl)sulfonyl]-piperidine] | < 10% | < 10% | < 10% | < 10% | 11.2% | 17% |  | 
CCC(CC1CC(=O)N(Cc2ccccc2)C1)c1cc(O)c(C(c2ccccc2)C2CC2)c(=O)o1 (stereo not shown) [Example 142, 4-[2-[3-(Cyclopropylphenylmethyl)-4-hydroxy-2-oxo-2H-pyran-6-yl]butyl]-1-(phenylmethyl)-2-pyrrolidinone] | < 10% | < 10% | 26.9% | 64.3% | 88.7% | 104% |  | 
O=c1oc(CC2CCCC2)cc(O)c1C(c1ccccc1)C1CC1 (stereo not shown) [Example 143, 6-(Cyclopentylmethyl)-3-(cyclopropylphenylmethyl)-4-hydroxy-2H-pyran-2-one] | < 10% | < 10% | 25.1% | 57.9% | 83.1% | 93.8% |  | 
O=c1oc(CC2CCOCC2)cc(O)c1C(c1ccccc1)C1CC1 (stereo not shown) [Example 144, 3-(Cyclopropylphenylmethyl)-4-hydroxy-6-[(tetrahydro-2H-pyran-4-yl)methyl]-2H-pyran-2-one] | < 10% | < 10% | < 10% | < 10% | < 10% | 22.7% |  | 
O=c1oc(CCCF)cc(O)c1C(c1ccccc1)C1CC1 (stereo not shown) [Example 145, 3-(Cyclopropylphenylmethyl)-6-(3-fluoropropyl)-4-hydroxy-2H-pyran-2-one] | < 10% | < 10% | < 10% | 26.6% | 59.7% | 84.4% |  | 
CCC(c1cc(O)c(C(c2ccccc2)C2CC2)c(=O)o1)C(O)c1ccccc1 (stereo not drawn) [Example 146, 3-(α-cyclopropylbenzyl)-4-hydroxy-6-(α-ethyl-β-hydroxyphenethyl)-2H-pyran-2-one] | 36.4% | 73.6% | 82.7% | 87.7% | 91.2% | 95.2% |  | 
Cc1ccc(C(O)Cc2cc(O)c(C(c3ccccc3)C3CC3)c(=O)o2)cc1 (stereo not drawn) [Example 147, 3-(α-cyclopropylbenzyl)-4-hydroxy-6-(β-hydroxy-p-methylphenethyl)-2H-pyran-2-one] | < 10% | < 10% | 28.9% | 52.6% | 78.1% | 89.2% |  | 114%
